Consider one compound from patent US20220325242A1, “IDH2 INHIBITION FOR PRODUCING T-CELLS AND B-CELLS WITH A MEMORY PHENOTYPE” (Universite de Lausanne, priority 2019, published 2022).

One assay relates to OT1 CD8+ T-cells. The experiment in a line: Flow cytometry of surface activation and memory markers on in vitro cultured OT1 CD8+ T-cells. Type of assay: cell-based, mouse. The conditions noted are these: 5 μM inhibitor day 0-3, flow cytometry on day 3 and 7. How it is done: Example 2. In vitro culture of splenocytes comprising CD8+ T-cells. OT1 splenocytes (as described in Example 1) were cultured for 3 days at a concentration of 10^6 cells per mL in RPMI medium (Gibco 61870-01) supplemented with 10% FCS, (Gibco 10270-106), 1% Penicillin/Streptomycin (P/S; Gibco 15070-063), 0.1% 13-mercaptoethanol, 1% HEPES (Gibco 15630-080), 1× Non-essential amino acids (Gibco 11140-035), 1% L-glutamine (Gibco 25030-081), 1 mM Sodium Pyruvate (Gibco 11360-039), 100 U/m1 hIL-2 (Glaxo-IMB) and 1 μg/ml ovalbumin N4 peptide (SIINFEKL). To evaluate the effects of IDH2 inhibition on T-cell differentiation, 5 μM of a small molecule IDH2 inhibitor (AG221 or AGI6780) or a DMSO solvent control was added during this 3-day culture period. At day 3, a fraction of the splenocytes was collected and the remaining cells were cultured for 4 additional days with 100 U/ml hIL-2 and 10 ng/ml hIL-7 (Peprotech 200-07) supplementation after washing out the inhibitors and the ovalbumine N4 peptide (FIG. 1). At day 3 and day 7, the activation and differentiation state of CD8+ T-cells was determined by gene expression analysis, flow cytometry and extracellular metabolic flux analyses (see Example 3).
Cells were incubated in a live/dead stain (Fixable aqua dead cell stain kit, Invitrogen) followed by an incubation with different antibody panels.
Antibody panel to determine the differentiation and activation state of in vitro cultured T-cells (see Examples 2 and 4): anti-CD8-PE-texas-Red, anti-CD62L-FITC, anti-CD127-PE, anti-CD27-PerCP-Cy5.5, anti-CD71-PE-Cy7, anti-CD44-APC-Cy7, anti-CD98-APC, anti-CD25-Pacific blue (BD Pharmingen and eBioscience, San Diego, Calif., USA). All those antigens are surface molecules. Cells were gated on living single CD8+ cells before analysis of activation and memory marker expression. For the unstained control, cells were stained with the live/dead stain and anti-CD8-PE-texas-Red.
Cells were acquired on LSR-II flow cytometers from the flow cytometry facility of UNIL and data were analyzed with FlowJo™ 10 software. Antibodies were purchased from BD Phamingen (San Diego, Calif., USA), eBioscience (San Diego, Calif., USA, and Biolegend (San Diego, Calif., USA).
On the technique in general: In flow cytometry, cells or beads pass a laser one at a time.

Assay [1] deals with histone H3 (H3K4-3Me, H3K27-Ac) in OT1 T-cells. Briefly: Western blot of histone H3 modifications in OT1 T-cells. It is filed as cell-based, mouse. The conditions noted are these: day 7, 5 μM day 0-3, western blot, versus DMSO. The method, then:
Methods: OT1 splenocytes were activated and cultured with 5 μM AG221 or DMSO as described in Example 2. After 3 days, the cells were washed and the IDH2 inhibitor was washed out as well. The cells were then cultured for an additional 4 days in the absence of AG221. At day 7, the cells were collected and washed once with PBS. 50′000 cells were collected for ATAC-seq while the remaining cell pellet was lysed in extraction buffer (20 mM Tris HCl, 150 mM NaCl, 1% Triton X-100, 10% glycerol, 5 mM EDTA) supplemented with Complete Mini protease inhibitor (Roche) for wester blotting.
For western blotting, an equal amount of protein (as measure by the BCA protein assay kit, Thermo Scientific) was size-separated on a 12.5% polyacrylamide gel and transferred to a 0.2 μm nitrocellulose membrane (Bio-Rad). The following antibodies were used: β-Actin (AC-74) from Sigma Aldrich, H3K4-trimethyl (C42D8) and H3K27-acetyl (D5E4) from Cell Signaling, and appropriate HRP-labelled secondary antibodies (Santa Cruz). The signal was visualized with ECLTM Select Western Blotting Detection Reagent from Sigma Aldrich or SuperSignal West Femto Maximum Sensitivity Substrate from Thermo Scientific and acquired by the Fusion FX from Vilber.
For orientation: A western blot detects proteins with antibodies after separation by electrophoresis.

In assay [2] the test system is human CD8+ T-cells from umbilical cord blood. The experiment in a line: CD62L flow cytometry of human cord blood mononuclear cells (CBMC). It is filed as cell-based. How it is done: Methods: Mononuclear Cells were isolated from fresh umbilical cord blood on a Percoll Gradient (CBMCs). 10^4 CBMC's were seeded per well in a round bottom 96-well plate in RPMI with 10% human serum, and activated with (magnetic) αCD3/CD28 at a 1:2 cell:bead ratio and 300 U/ml rhIL-2, in the presence of 5 μM AG221 or DMSO, or 1 μM MK2206 (AKT inhibitor). After 11 days of culture, CD62L expression was analyzed by flow cytometry on a fraction of the cells (FIG. 15A). The other cells were washed 2 times and placed in a magnet to remove the inhibitors and the αCD3/CD28 beads. The cells were then rested for 4 hours before restimulating them for 4 hours with 1 ng/ml Phorbol 12-Myristate 13-Acetate (PMA, a PKC activator) and 50 μg/ml Ionomycin (a Ca^2+ ionophore, activating NF-KB and NFAT) in the presence of 50 μ/ml golgi inhibitor (Brefeldin A, BFA), allowing for the measurement of intracellular accumulation of different cytokines by flow cytometry.

For the compound `CC(C)(O)CNc1nc(Nc2ccnc(C(F)(F)F)c2)nc(-c2cccc(C(F)(F)F)n2)n1` [AG221, 2-methyl-1-[[4-[6-(trifluoromethyl)pyridin-2-yl]-6-[[2-(trifluoromethyl)pyridin-4-yl]amino]-1,3,5-triazin-2-yl]amino]propan-2-ol], in the assay on OT1 CD8+ T-cells, the “CD62L surface expression compared to DMSO” value is on record as “increased” and the “other surface markers (CD25, CD44, CD71, CD98, CD27, CD127) compared to DMSO” value was “generally unchanged”. In addition, in assay [1], the “acetylation of lysine residue 27 of histone H3” value was “increased” and the “trimethylation of lysine residue 4 of histone H3” value is recorded as “increased”. Besides, the “CD62L expression in human CD8+ T-cells” value in assay [2] (day 11, 5 μM, versus DMSO) was “strong upregulation”. For the same compound, the “CD8+ cells expressing CD62L” value in assay [2] (day 11, AG221 5 μM, MK2206 1 μM, DMSO control about 35%) was “about 75%”.
